Laboratory results taken from US4440771A, “2-Acetyl quinoline thiosemicarbazones useful in treatment of gonorrhea, malaria or bacterial infections” (The United States of America as represented by the …, priority 1982, dated 1984).
In brackets after ≈: the same amount, converted by molar mass. Like-named read-outs stand apart in the source and are kept apart here.

What was measured:
[1] = test system: Neisseria meningitidis isolates; experiment: Minimum inhibitory concentration, macro broth dilution, Neisseria meningitidis isolates (Test 2); assay type: cell-based; conditions: 24 h
Experimental: Compounds were tested against five isolates of Neisseria meningitidis. […] The test procedure used was the macro broth dilutuon method in duplicate outlined by J. C. Sherris on pages 414-415. The test compounds and controls were prepared as in Test 1. Ampicillin and penicillin standards were initially diluted as described by J. C. Sherris on pages 411-412 followed by dilution with Mueller-Hinton broth.

[2] = test system: Mycobacterium smegmatis strains; experiment: Minimum inhibitory concentration, Mycobacterium smegmatis strains (Test 4); assay type: cell-based; conditions: Mycolicibacterium smegmatis
Experimental: Compounds were tested against three strains of Mycobacterium smegmatis. The test procedure used was as mentioned by N. E. Morrison [Int. J. of Leprosy 39:34-43 (1971)]. The strain numbers refer to Mycobacterium smegmatis ATCC 607 (I), a DDS-resistant daughter strain (II), and a Rifampin-resistant daughter strain (III), respectively.

[3] = test system: Neisseria gonorrhoeae isolates; experiment: Minimum inhibitory concentration, agar dilution, Neisseria gonorrhoeae isolates (Test 3); conditions: 24 h, read-out: Minimum Inhibitory Concentration
Experimental: Compounds were tested against 35 Neisseria gonorrhoeae isolates. The bacteria used were provided by the Department of Bacterial Diseases of the Walter Reed Amry Institute of Research. The test procedure used was the agar dilution method in duplicate as outlined by J. S. Sherris on pages 411-412. GC Medium (Difco) with a 2% defined supplement added as described by D. S. Kellogg et al [J. Bact. […] The compounds were dissolved in DMSO (1.0 mg/ml), diluted with GC broth (GC Medium without agar) to the appropriate concentration, and added to the GC Medium at 55°-56° C. The latter was then poured and allowed to solidify. A penicillin standard was also prepared with initial dilutions as described by J. C. Sherris followed by dilutions with GC broth and addition to the GC Medium at 55°-56° C. The inoculum was 1:200 CG broth dilution of a suspension of colony isolates after the suspension was adjusted visually to the turbidity standard described by J. M. Matsen and A. L. Barr on page 422 in "Manual of Clinical Microbiology," 2nd Ed., E. Lennette, E. H. Spaulding, and J. P. Truant, Ed. […] The plates were inoculated with a replicator and incubated at 37° C. under 5-10% carbon dioxide.

[4] = test system: Staphylococcus aureus isolates; experiment: Minimum inhibitory concentration, macro broth dilution, Staphylococcus aureus isolates (Test 1); assay type: cell-based; conditions: for MIC: Staphylococcus aureus, 24 h, read-out: Minimum Inhibitory Concentration
Experimental: Compounds were tested against five isolates of Staphylococcus aureus. The bacteria used were isolated from patients at the Walter Reed Army Medical Center, Washington, D.C. […] Each compound was dissolved in Dimethyl Sulfoxide (DMSO) (12.8 mg/ml) and then diluted with Mueller-Hinton broth to obtain the desired dilutions. Tubes containing the hightest quantities of DMSO with no compound present were run as controls.

[5] = test system: Plasmodium berghei KBG 173; experiment: In vivo antimalarial activity against Plasmodium berghei in mice (Test 5); design: key: C: Mice surviving 60 days are considered cured; active: Activity is defined as a 100% increase in the mean survival time of the treated mice compared to the control group; conditions: C (n/5) = cured of five
Experimental: Compounds were tested against Plasmodium berghei KBG 173 malaria in mice following the procedure described by T. S. Osdene, P. B. Russell, and L. Rane [J. Med. Chem. 10:431-434 (1967)]. Five mice were tested at each dosage level. Mice surviving 60 days are considered cured. Toxicity is defined as a decrease in the mean survival time of the treated mice as compared to the control group. Activity is defined as a 100% increase in the mean survival time of the treated mice compared to the control group.

[6] = Neisseria meningitidis isolate 7957, read-out: Minimum Inhibitory Concentration
[7] = Neisseria meningitidis isolate 7990, read-out: Minimum Inhibitory Concentration
[8] = Neisseria meningitidis isolate 8005, read-out: Minimum Inhibitory Concentration
[9] = Neisseria meningitidis isolate 8006, read-out: Minimum Inhibitory Concentration
[10] = Neisseria meningitidis isolate 8011, read-out: Minimum Inhibitory Concentration
[11] = 24 h, DDS-resistant daughter strain (II)
[12] = 24 h, Rifampin-resistant daughter strain (III)
[13] = ATCC607, 24 h, Mycobacterium smegmatis ATCC 607 (I)
[14] = Staphylococcus aureus isolate V, 24 hours
[15] = Staphylococcus aureus isolate II, 24 hours
[16] = Staphylococcus aureus isolate III, 24 hours
[17] = Staphylococcus aureus isolate IV, 24 hours
[18] = read-out: Minimum Inhibitory Concentration, Neisseria meningitidis isolate 7957
[19] = read-out: Minimum Inhibitory Concentration, Neisseria meningitidis isolate 7990
[20] = read-out: Minimum Inhibitory Concentration, Neisseria meningitidis isolate 8006
[21] = read-out: Minimum Inhibitory Concentration, Neisseria meningitidis isolate 8011

SMILES	MIC [1, 6] [µg/mL]	MIC [1, 7] [µg/mL]	MIC [1, 8] [µg/mL]	MIC [1, 9] [µg/mL]	MIC [1, 10] [µg/mL]	MIC [2, 11] [µg/mL]	MIC [2, 12] [µg/mL]	MIC [2, 13] [µg/mL]	MIC [3] [µg/mL]	Minimum Inhibitory Concentration [4, 14] [µg/mL]	MIC [4, 15] [µg/mL]	MIC [4, 16] [µg/mL]	MIC [4, 17] [µg/mL]	other results
CC(=NNC(=S)N1CCCCCC1)c1ccc2ccccc2n1 [Compound 3F, 1-Azacycloheptane-1-thiocarboxylic Acid 2-[1-(2-quinolyl)ethylidene]-hydrazide]	< 0.062	0.125 (≈ 0.383 µM)	0.25 (≈ 0.766 µM)	0.25 (≈ 0.766 µM)	0.25 (≈ 0.766 µM)	15 (≈ 45.9 µM)	10 (≈ 30.6 µM)	2.5 (≈ 7.66 µM)	0.25 to 0.5 (≈ 0.766 to 1.53 µM)	16	16 (≈ 49 µM)	16 (≈ 49 µM)	16 (≈ 49 µM)	
CC(=NNC(=S)N(CC(C)C)CC(C)C)c1ccc2ccccc2n1 [Compound 3K, Diisobutylaminothiocarboxylic acid 2-[1-(2-quinolyl)ethylidene]hydrazide]	0.125 (≈ 0.351 µM)	0.5 (≈ 1.4 µM)	0.5 (≈ 1.4 µM)	1 (≈ 2.8 µM)	0.5 (≈ 1.4 µM)	> 50	> 50	10 (≈ 28 µM)	> 1	16	16 (≈ 44.9 µM)	16 (≈ 44.9 µM)	16 (≈ 44.9 µM)	In vivo Antimalarial Activity ([5]; 320 mg/kg): active; In vivo Antimalarial Activity ([5]; 640 mg/kg): active
CO[C@H]1/C=C/O[C@@]2(C)Oc3c(C)c(O)c4c(O)c(c(/C=N/N5CCN(C)CC5)c(O)c4c3C2=O)NC(=O)/C(C)=C\C=C\[C@H](C)[C@H](O)[C@@H](C)[C@@H](O)[C@@H](C)[C@H](OC(C)=O)[C@@H]1C [Rifampin, reference compound]							250 (≈ 304 µM)	1 (≈ 1.22 µM)						
CC(=NNC(=S)N1CCN(c2ccccn2)CC1)c1ccc2ccccc2n1 [Compound 3H]	> 1	> 1	> 1	> 1	> 1	10 (≈ 25.6 µM)	5 (≈ 12.8 µM)	2.5 (≈ 6.4 µM)	0.125 to 0.5 (≈ 0.32 to 1.28 µM)	16	16 (≈ 41 µM)	16 (≈ 41 µM)	16 (≈ 41 µM)	
Nc1ccc(S(=O)(=O)c2ccc(N)cc2)cc1 [DDS, reference compound]						400 (≈ 1610 µM)		2 (≈ 8.05 µM)						
CC1(C)S[C@@H]2[C@H](NC(=O)Cc3ccccc3)C(=O)N2[C@H]1C(=O)O [Penicillin, reference compound]									0.062 to 16 (≈ 0.185 to 47.8 µM)					MIC [1, 18]: 0.031 µg/mL (≈ 0.0927 µM); MIC [1, 19]: 0.031 µg/mL (≈ 0.0927 µM); MIC [1, 20]: 0.031 µg/mL (≈ 0.0927 µM); MIC [1, 21]: 0.031 µg/mL (≈ 0.0927 µM)
CC(=NNC(=S)N1CC2CCC(CC2)C1)c1ccc2ccccc2n1 [Compound 3G, 3-Azabicyclo[3.2.2]none-3-thiocarboxylic acid 2-[1-(2-quinolyl)ethylidene]hydrazide]						15 (≈ 42.6 µM)	10 (≈ 28.4 µM)	4 (≈ 11.3 µM)	0.5 to 1 (≈ 1.42 to 2.84 µM)	16				MIC [1, 18]: 0.125 µg/mL (≈ 0.355 µM); MIC [1, 19]: 1 µg/mL (≈ 2.84 µM); MIC ([1]; read-out: Minimum Inhibitory Concentration, Neisseria meningitidis isolate 8005): 1 µg/mL (≈ 2.84 µM); MIC [1, 20]: 0.5 µg/mL (≈ 1.42 µM); MIC [1, 21]: 0.5 µg/mL (≈ 1.42 µM); In vivo Antimalarial Activity ([5]; 160 mg/kg): active; Minimum Inhibitory Concentration [4, 15]: 16 µg/mL; Minimum Inhibitory Concentration [4, 16]: 16 µg/mL; Minimum Inhibitory Concentration [4, 17]: 16 µg/mL; MIC [4]: 16 µg/mL (≈ 45.4 µM)
CC1(C)S[C@@H]2[C@H](NC(=O)[C@H](N)c3ccccc3)C(=O)N2[C@H]1C(=O)O [Ampicillin, reference compound]	0.008 (≈ 0.0229 µM)	0.008 (≈ 0.0229 µM)	0.008 (≈ 0.0229 µM)	0.016 (≈ 0.0458 µM)	0.016 (≈ 0.0458 µM)									
CCCNC(=S)NN=C(C)c1ccc2ccccc2n1 [Compound 3J, I-Propylaminothiocarboxylic acid 2-[1-(2-quinolyl)ethylidene]hydrazide]						4 (≈ 14 µM)	2 (≈ 6.98 µM)	1 (≈ 3.49 µM)						
CC(=NNC(=S)N1CCCC1)c1ccc2ccccc2n1 [Compound 3I, Pyrrolidine-1-thiocarboxylic acid 2-[1-(2-quinolyl)ethylidene]hydrazide]	0.062 (≈ 0.208 µM)	0.125 (≈ 0.419 µM)	0.125 (≈ 0.419 µM)	0.125 (≈ 0.419 µM)	0.125 (≈ 0.419 µM)	3 (≈ 10.1 µM)	1.5 (≈ 5.03 µM)	0.6 (≈ 2.01 µM)	0.125 to 0.25 (≈ 0.419 to 0.838 µM)				≤ 0.25	MIC ([4]; Staphylococcus aureus isolate I, 24 hours): ≤ 0.25 µg/mL; MIC [4, 14]: ≤ 0.25 µg/mL
